The values that follow come from patent US8673882B2, “Inhibitors of autotaxin” (University of Tennessee Research Foundation, priority 2011, dated 2014).

Type in all cases: biochemical
Assay [1] deals with recombinant human ATX (Homo sapiens, UniProt Q13822). Description: Autotaxin inhibition screening assay (FS-3 FRET substrate). The following applies: 10 μM compound; 2 nM recombinant human ATX; 1 μM FS-3; 2 h, 37° C.; read-out: ATX Activity, % control (10 μM). How it is done: A 10 μM concentration of the compound is added to 2 nM recombinant human ATX and the FRET (Fluorescence Resonance Energy Transfer) ATX substrate FS-3.
As the first level of screen, 50 μl of recombinant-ATX (2 nM in final concentration) in assay buffer [(Tris 50 mM, NaCl 140 mM, KCl 5 mM, CaCl2 1 mM, MgCl2 1 mM (pH 8.0)] was mixed with 25 μL of FS-3 (Echelon Biosciences, Inc., Salt lake city, Utah), final concentration 1 μM, and 25 μl of test compound was dissolved in assay buffer with 40 μM bovine serum albumin (Sigma, St. Louis, Mo.) in 96-well Costar black-well plate. FS-3 fluorescence at excitation and emission wavelengths of 485 and 538 nm, respectively, were monitored using a FLEXstation II (Molecular Devices, Sunnyvale, Calif.) for 2 h of incubation at 37° C. The differences between time 0 and 120 min were calculated individually and normalized to the vehicle control. The mean±SD of triplicate samples was expressed as percentage of ATX activity. The ATX activity in the presence of the test compounds was compared to vehicle using the […] p<0.05 was considered significant.
The first level of testing was done using 10 μM concentrations of the compounds shown in Tables 1 and 2 added to 2 nM recombinant human ATX and the FRET substrate FS-3. After a 2 h incubation the amount of FS3 hydrolyzed was measured and the residual ATX activity was expressed as a percent of the vehicle-treated sample less the autolysis of FS3 in the absence of ATX.

The target in assay [2] is T1, NPP7 (Homo sapiens, UniProt Q6UWV6).
T1 sequence (Q6UWV6 22-458): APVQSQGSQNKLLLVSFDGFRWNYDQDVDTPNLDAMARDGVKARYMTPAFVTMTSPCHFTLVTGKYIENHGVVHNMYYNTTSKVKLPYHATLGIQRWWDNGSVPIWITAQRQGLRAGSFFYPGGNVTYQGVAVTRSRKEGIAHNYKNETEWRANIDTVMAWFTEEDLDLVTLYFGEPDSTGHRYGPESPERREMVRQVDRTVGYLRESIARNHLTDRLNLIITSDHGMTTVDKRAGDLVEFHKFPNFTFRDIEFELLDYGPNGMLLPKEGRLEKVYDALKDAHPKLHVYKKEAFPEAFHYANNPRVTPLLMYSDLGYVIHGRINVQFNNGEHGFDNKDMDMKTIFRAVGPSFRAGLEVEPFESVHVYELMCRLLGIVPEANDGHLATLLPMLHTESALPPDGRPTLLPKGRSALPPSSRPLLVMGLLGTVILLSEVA
The experiment in a line: NPP-7 inhibition assay (pNPPC substrate). The following applies: 10 μM compound; 8.3 nM enzyme; 10 μM pNPPC; read-out: NPP7 Activity, % control (10 μM). How it is done: (§1) NPP6 and NPP7 are the only NPP isoforms other than ATX that are known to utilize lysophospholipid phosphodiesters as substrates. Therefore, the specificity of the chemical compounds of the invention regarding ATX was addressed by determining the activity of NPP6 and NPP7 in the presence and absence of these analogs.
(§2) Inhibition of NPP6 and NPP7 was evaluated using recombinant, purified proteins, the synthetic substrate para-nitrophenylphosphocholine (pNPPC) and a Synergy II plate reader (BioTek, Winooski, Vt.). The final concentration of each enzyme was 8.3 nM and pNPPC was 10 μM. All analogs were tested at single 10 μM concentrations. Absorbance of liberated para-nitrophenol at 405 nm was determined up to 1 hour (where responses were linear) and was normalized to vehicle control.

For assay [3], the target named is T2, NPP6 (Homo sapiens, UniProt Q6UWR7).
T2 sequence (Q6UWR7 23-419): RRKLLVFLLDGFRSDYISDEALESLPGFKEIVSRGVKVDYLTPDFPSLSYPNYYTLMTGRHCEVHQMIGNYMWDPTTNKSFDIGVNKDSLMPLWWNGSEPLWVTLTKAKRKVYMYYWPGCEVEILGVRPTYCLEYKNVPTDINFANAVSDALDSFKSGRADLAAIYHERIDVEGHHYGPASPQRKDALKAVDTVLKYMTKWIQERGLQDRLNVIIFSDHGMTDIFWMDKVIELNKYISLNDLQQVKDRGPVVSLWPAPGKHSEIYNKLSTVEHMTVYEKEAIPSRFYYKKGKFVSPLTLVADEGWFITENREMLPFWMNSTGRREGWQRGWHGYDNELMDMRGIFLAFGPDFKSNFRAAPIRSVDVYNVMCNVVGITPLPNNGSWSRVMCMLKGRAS
Description: NPP-6 inhibition assay (pNPPC substrate). The following applies: 10 μM compound; 8.3 nM enzyme; 10 μM pNPPC; read-out: NPP6 Activity, % control (10 μM). Here is the method:
as §1, §2

Assay [4] has as its target recombinant, purified human ATX (Homo sapiens, UniProt Q13822). The experiment in a line: Mechanism of autotaxin inhibition (IC50, Ki, Ki′; FS-3 hydrolysis). The following applies: for IC50: 8.3 nM ATX, 1 μM FS-3, 15 μM BSA; for ATX Mechanism of inhibition: FS-3 0.3 μM to 20 μM, inhibitor 0, 0.5× and 2× IC50. Here is the method: The mechanism of inhibition of ATX was determined using recombinant, purified human ATX and FS-3. Final ATX and FS-3 concentrations were 8.3 nM and 1 μM, respectively and the assay buffer with 15 μM fatty acid tree BSA. To calculate IC50, full dose responses were determined for the test compounds. […] Simultaneous non-linear regression, using, WinNonLin® 6.1 (Pharsight, Mountain View, Calif.) was used to assign the mechanism of inhibition. Ki and Ki′ values (the affinity for free enzyme and enzyme substrate complex, respectively) were determined by calculating the lowest averaged percent residuals for each mechanism derived from curve fitting using the Michealis-Menten equations for competitive, uncompetitive, mixed-mode, and non-competitive inhibition.

Setting [5] is: affinity for enzyme substrate complex.

As to `CCCCCCCCCCCCCCCCS(=O)(=O)Nc1ccc(CP(=O)(O)O)cc1` [Compound 4, 4-(Hexadecane-1-sulfonylamino)benzyl phosphonic acid], the remaining activity at 10 µM was found to be 24.1% in assay [1], 93.5% in assay [2] and 102% in assay [3].

Turning to `CCCCCCCCCCCCCCOc1ccc(CP(=O)(O)O)cc1` [Compound 10, 4-(Tetradecyloxy)benzylphosphonic acid], the remaining activity at 10 µM in assay [2] worked out at 101%; in assay [3], 102%.

Consider `CCCCCCCCCCCCC/C=C/c1ccc(CP(=O)(O)O)cc1` [Compound 18, (E)-4-(Pentadec-1-enyl)benzylphosphonic acid], for which the remaining activity at 10 µM was 18.8% in assay [1], 97.7% in assay [2] and 104% in assay [3].

Consider `CCCCCCCCCC/C=C/c1ccc2cc(CP(=O)(O)O)ccc2c1` [Compound 30a, (E)-6-Dodec-1-enyl-naphthalen-2-yl-methylphosphonic acid], for which the remaining activity at 10 µM stood at 61.3% in assay [1], 100% in assay [2] and 103% in assay [3].

As to `CCCCCCCCCCCCc1ccc2cc(CP(=O)(O)O)ccc2c1` [Compound 34a, 6-Dodecylnaphthalen-2-yl-methylphosphonic acid], the remaining activity at 10 µM was determined as 19.9% in assay [1], 98.8% in assay [2] and 101% in assay [3].

For `CCCCCCCCCCCCCc1ccc2cc(CP(=O)(O)O)ccc2c1` [Compound 34b, 6-Tridecylnaphthalen-2-yl-methylphosphonic acid], the remaining activity at 10 µM in assay [1] was 50.8%; in assay [2], 94.7%; in assay [3], 100%.

As for `CCCCCCCCCCCCCCCc1ccc(C(O)P(=O)(O)O)cc1` (stereo not drawn) [Compound 37, Hydroxy-4-pentadecylphenylmethylphosphonic acid], the remaining activity at 10 µM was determined as 9.2% in assay [1], 101% in assay [2] and 99.6% in assay [3]. Also, the half-inhibitory concentration (IC50) in assay [4] came to 0.73 µM. For the same molecule, in assay [4], the “ATX Mechanism of inhibition” value is “Mixed”. Also, the Ki in assay [4] (setting [5]) came to 0.7 µM; in assay [4] (affinity for free enzyme), 0.45 µM.

For `CCCCCCCCCCCCCCCc1ccc(C(F)P(=O)(O)O)cc1` (stereo not drawn) [Compound 41, Fluoro-4-pentadecylphenylmethyl phosphonic acid], the remaining activity at 10 µM in assay [1] was 42.3%; in assay [2] it was 103%; in assay [3] it was 101%. Further, the IC50 in assay [4] was 17.9 µM. For the same molecule, in assay [4], the “ATX Mechanism of inhibition” value is on record as “Mixed”. For the same molecule, the results for the Ki in assay [4] (setting [5]) and in assay [4] (affinity for free enzyme) were 5.54 µM and 4.97 µM, respectively.

Turning to `CCCCCCCCCCCCCCCc1ccc(C(Cl)P(=O)(O)O)cc1` (stereo not drawn) [Compound 42, Chloro-4-pentadecylphenylmethyl phosphonic acid], the remaining activity at 10 µM in assay [1] was 118%; in assay [2], 99.9%; in assay [3], 101%.

As to `CCCCCCCCCCCCCCCc1ccc(COP(=O)(O)O)cc1` [Compound 45, 4-pentadecylbenzyl dihydrogen phosphate], the values for the remaining activity at 10 µM in assay [1], in assay [2] and in assay [3] were 85.2%, 98.8% and 101%, respectively.

For the molecule `CCCCCCCCCCCCCCCc1ccc(COP(O)(O)=S)cc1` [Compound 47, O-4-pentadecylbenzyl O,O-dihydrogen phosphorothioate], the remaining activity at 10 µM turned out to be 92.9% in assay [2] and 98.8% in assay [3]. Further, in assay [4], the IC50 is 1.54 µM. Moreover, in assay [4], the “ATX Mechanism of inhibition” value is recorded as “Mixed”. The Ki in assay [4] (setting [5]) is 4.43 µM; in assay [4] (affinity for free enzyme), 4.45 µM.

With `CCCCCCCCCCCCCC(=O)Nc1ccc(CP(=O)(O)O)cc1` [Compound S32826, 4-tetradecanoylaminobenzyl phosphonic acid, reference compound], the remaining activity at 10 µM in assay [2] came to 101%; in assay [3], 102%.

What is called IC50 is the point on the concentration scale where inhibition reaches its midpoint. As usually defined, the Ki is a dissociation constant, usually derived from enzyme kinetics or from competition with a known ligand.
